Measurements as given in patent publication US6541511B1, “Methyl analogs of simvastatin as novel HMG-CoA reductase inhibitors” (Ranbaxy Laboratories Limited, priority 2001, dated 2003).

Tests used:
HMG-CoA reductase [1] = target: T1, HMG-CoA reductase (Homo sapiens, UniProt P04035); assay: in vitro HMG-CoA reductase inhibitory activity; type: biochemical
T1 sequence (P04035 1-888): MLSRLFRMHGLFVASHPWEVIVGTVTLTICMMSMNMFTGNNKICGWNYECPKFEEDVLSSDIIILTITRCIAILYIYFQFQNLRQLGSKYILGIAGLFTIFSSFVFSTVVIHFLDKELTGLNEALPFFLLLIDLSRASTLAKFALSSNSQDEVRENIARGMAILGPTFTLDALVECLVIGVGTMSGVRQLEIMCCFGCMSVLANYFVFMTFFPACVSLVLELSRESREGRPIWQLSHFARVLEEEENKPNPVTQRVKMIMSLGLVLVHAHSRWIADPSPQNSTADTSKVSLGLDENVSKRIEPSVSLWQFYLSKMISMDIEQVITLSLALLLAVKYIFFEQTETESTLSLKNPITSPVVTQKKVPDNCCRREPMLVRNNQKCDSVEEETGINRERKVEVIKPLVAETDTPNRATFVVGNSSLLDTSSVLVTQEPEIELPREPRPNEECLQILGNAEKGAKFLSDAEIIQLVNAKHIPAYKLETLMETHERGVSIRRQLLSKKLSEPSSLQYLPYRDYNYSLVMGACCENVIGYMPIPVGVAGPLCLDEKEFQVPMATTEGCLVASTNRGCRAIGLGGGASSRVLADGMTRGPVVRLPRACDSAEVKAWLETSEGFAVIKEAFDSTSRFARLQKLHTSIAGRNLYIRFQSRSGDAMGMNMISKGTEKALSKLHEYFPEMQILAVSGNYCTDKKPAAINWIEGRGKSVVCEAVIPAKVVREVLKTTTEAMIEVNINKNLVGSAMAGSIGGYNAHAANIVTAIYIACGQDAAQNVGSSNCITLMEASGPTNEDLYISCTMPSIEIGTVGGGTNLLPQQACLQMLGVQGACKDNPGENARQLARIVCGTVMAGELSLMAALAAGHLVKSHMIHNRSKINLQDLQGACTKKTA
Protocol: The in vivo and in vitro biological activity of the methyl analog of simvastatin isomeric compounds of structural formulae VIIc and VIIa was carried out on a HMG-CoA reductase inhibitory model. The compounds were tested at three concentrations (10^−5, 10^−7 and 10^−9 M) for the in vitro activity.

[2] = tested on: (14C) cholesterol synthesis from (14C) acetate; assay: in vivo inhibition of (14C) cholesterol prepared from 14C acetate in rats; settings: for cholesterol lowering activity (in words): in vivo
Protocol: The in vivo experiments were conducted using radiolabelled (^14C) acetate which was administered to the rats converting it into (^14C) cholesterol. This synthesis was measured by quantitating (^14C) cholesterol inhibited by HMG-CoA reductase inhibitor.

HMG-CoA reductase [3] = target: T1, HMG-CoA reductase; settings: cited from earlier work

% HMG-CoA reductase inhibition activity (HMG-CoA reductase [1]; concentration 10^-5 M) [%] | % HMG-CoA reductase inhibition activity (HMG-CoA reductase [1]; concentration 10^-7 M) [%] | % HMG-CoA reductase inhibition activity (HMG-CoA reductase [1]; concentration 10^-9 M) [%] | Compound | % inhibition of (14C) cholesterol prepared from 14C acetate ([2]; 1 mg/kg i.p.) [%] | % inhibition of (14C) cholesterol prepared from 14C acetate ([2]; 1 mg/kg orally) [%] | % inhibition of (14C) cholesterol prepared from 14C acetate ([2]; 5 mg/kg orally) [%] | cholesterol lowering activity (in words) [2] | HMG-CoA reductase inhibitory activity (in words) (HMG-CoA reductase [1]; tested at 10^-5, 10^-7 and 10^-9 M) | potency relative to mevinolin (HMG-CoA reductase [3])
100 | 93 | 30 | CCC(C)(C)C(=O)O[C@H]1C[C@@H](C)C=C2C=C[C@H](C)[C@H](CC[C@@H]3C[C@@H](O)[C@@H](C)C(=O)O3)[C@H]21 [VIIa, 6(R)-[2-[8(S)-[[2,2-Dimethylbutanoyl]oxyl]-2(S),6(R)-dimethyl-1,2,6,7,8,8a(R)-hexahydro-1(S)-napthyl]ethyl]-3(R)-methyl,4(R)-hydroxy-3,4,5,6-tetrahydro-2H-pyran-2-one] | 10 | 0 | 69 | have cholesterol lowering activity | – | –
99 | 71 | 8 | CCC(C)(C)C(=O)O[C@H]1C[C@@H](C)C=C2C=C[C@H](C)[C@H](CC[C@@H]3C[C@@H](O)[C@H](C)C(=O)O3)[C@H]21 [VIIc, 6(R)-[2-[8(S)-[[2,2-Dimethylbutanoyl]oxyl]-2(S),6(R)-dimethyl-1,2,6,7,8,8a(R)-hexahydro-1(S)-napthyl]ethyl]-3(S)-methyl,4(R)-hydroxy-3,4,5,6-tetrahydro-2H-pyran-2-one] | 8 | 0 | 57 | have cholesterol lowering activity | significant HMG-CoA reductase inhibitory activity | –
– | – | – | CCC(C)(C)C(=O)O[C@H]1C[C@@H](C)C=C2C=C[C@H](C)[C@H](CC[C@@H]3C[C@@H](O)CC(=O)O3)[C@H]21 [simvastatin] | – | – | – | – | – | twice as potent as mevinolin
